Experiments:
[1] = biological target: T1, full-length recombinant rat vitamin D receptor (Rattus norvegicus, UniProt P13053); test: Vitamin D receptor competitive binding with [3H]-1,25(OH)2D3; conditions: full-length recombinant rat VDR; for Ki: 1 nM radioligand, read-out: Ki, competition with [3H]-1,25(OH)2D3 for binding to the vitamin D receptor; for binding affinity to the receptor compared to 1,25-(OH)2D3: in words
T1 construct: Full-length recombinant rat receptor was expressed in E. coli BL21 (DE3) Codon Plus RIL cells; His tag (histidine tag) (C); made in house; host or cells: E. coli BL21 (DE3) Codon Plus RIL
T1 sequence (P13053 1-423): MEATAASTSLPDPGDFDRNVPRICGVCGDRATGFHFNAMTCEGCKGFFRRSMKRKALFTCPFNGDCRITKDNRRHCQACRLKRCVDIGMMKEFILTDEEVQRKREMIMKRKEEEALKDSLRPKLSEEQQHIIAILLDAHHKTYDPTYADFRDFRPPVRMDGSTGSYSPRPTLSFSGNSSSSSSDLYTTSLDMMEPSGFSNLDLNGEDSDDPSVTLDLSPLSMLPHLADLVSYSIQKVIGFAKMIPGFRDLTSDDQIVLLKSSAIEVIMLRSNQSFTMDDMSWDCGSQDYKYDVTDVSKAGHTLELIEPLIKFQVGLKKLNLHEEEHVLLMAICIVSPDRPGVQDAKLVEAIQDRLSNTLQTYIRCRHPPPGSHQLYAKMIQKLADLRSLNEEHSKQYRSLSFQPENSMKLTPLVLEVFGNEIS
Procedure: Full-length recombinant rat receptor was expressed in E. coli BL21 (DE3) Codon Plus RIL cells and purified to homogeneity using two different column chromatography systems. The first system was a nickel affinity resin that utilizes the C-terminal histidine tag on this protein. The protein that was eluted from this resin was further purified using ion exchange chromatography (S-Sepharose Fast Flow). Aliquots of the purified protein were quick frozen in liquid nitrogen and stored at −80° C. until use. For use in binding assays, the protein was diluted in TEDK50 (50 mM Tris, 1.5 mM EDTA, pH7.4, 5 mM DTT, 150 mM KCl) with 0.1% Chaps detergent. The receptor protein and ligand concentration was optimized such that no more than 20% of the added radiolabeled ligand was bound to the receptor.
Radiolabeled and unlabeled ligands were added to 100 mcl of the diluted protein at a final ethanol concentration of ≦10%, mixed and incubated overnight on ice to reach binding equilibrium. The following day, 100 mcl of hydroxylapatite slurry (50%) was added to each tube and mixed at 10-minute intervals for 30 minutes. The hydroxylapaptite was collected by centrifugation and then washed three times with Tris-EDTA buffer (50 mM Tris, 1.5 mM EDTA, pH 7.4) containing 0.5% Titron X-100. After the final wash, the pellets were transferred to scintillation vials containing 4 ml of Biosafe II scintillation cocktail, mixed and placed in a scintillation counter. Total binding was determined from the tubes containing only radiolabeled ligand.

[2] = Bone calcium mobilization (serum calcium) in vitamin D-deficient rats; format: in vivo, rat; conditions: 0.02% Ca diet; for bone calcium mobilization (serum calcium) at 780 pmol: 780 pmol/day for 4 consecutive days; for bone calcium mobilization activity (serum calcium): 4 consecutive ip doses, overall, compared to 1,25(OH)2D3; for bone calcium mobilization (serum calcium) at 87 pmol: 87 pmol/day for 4 consecutive days
Procedure: (§1) Male, weanling Sprague-Dawley rats were placed on Diet 11 (Suda et al, J. Nutr. 100:1049, 1970) (0.47% Ca)+vitamins AEK for one week followed by Diet 11 (0.02% Ca)+vitamins AEK for 3 weeks. The rats were then switched to the same diet containing 0.47% Ca for one week followed by two weeks on the same diet containing 0.02% Ca. Dose administration began during the last week on 0.02% calcium diet. Four consecutive ip doses were given approximately 24 hours apart. Twenty-four hours after the last dose, blood was collected from the severed neck and the concentration of serum calcium determined by atomic absorption spectrometry as a measure of bone calcium mobilization. The first 10 cm of the intestine was also collected for intestinal calcium transport analysis using the everted gut sac method.

[3] = Intestinal calcium transport (everted gut sac method) in vitamin D-deficient rats; format: in vivo, rat; conditions: 0.02% Ca diet, 4 consecutive ip doses, compared to 1,25(OH)2D3
Procedure: as §1

[4] = test system: Human promyelocytic leukemia (HL60) cells; test: HL-60 cell differentiation (nitro blue tetrazolium reduction); format: cell-based; conditions: for EC50: 4 days treatment, NBT reduction; for potency on HL-60 cell differentiation compared to 1,25(OH)2D3: in words
Procedure: Serial dilutions were prepared so that a range of drug concentrations could be tested without changing the final concentration of ethanol 0.2%) present in the cell cultures.
Human promyelocytic leukemia (HL60) cells were grown in RPMI-1640 medium containing 10% fetal bovine serum. The cells were incubated at 37° C. in the presence of 5% CO2.
HL60 cells were plated at 1.2×10^5 cells/ml. Eighteen hours after plating, cells in duplicate were treated with drug. Four days later, the cells were harvested and a nitro blue tetrazolium reduction assay was performed (Collins et al., 1979; J. Exp. Med. 149:969-974). The percentage of differentiated cells was determined by counting a total of 200 cells and recording the number that contained intracellular black-blue formazan deposits. Verification of differentiation to monocytic cells was determined by measuring phagocytic activity (data not shown).

Row | Compound | Ki [1] | binding affinity to the receptor compared to 1,25-(OH)2D3 [1] | bone calcium mobilization (serum calcium) at 780 pmol [2] | bone calcium mobilization activity (serum calcium) [2] | intestinal calcium transport activity [3] | EC50 ([4]; Homo sapiens, HL-60, 96 h) | potency on HL-60 cell differentiation compared to 1,25(OH)2D3 [4] | bone calcium mobilization (serum calcium) at 87 pmol [2] | EC50 [4]
1 | C=C1CC(=C)[C@H](O)C/C1=C/C=C1\CCC[C@]2(C)[C@@H]([C@@H](C)CCCC(C)(C)O)CC[C@@H]12 [1D-QMS, (20S)-25-hydroxy-2-methylene-vitamin D3] | 0.2 nM | about the same affinity | significant mobilization of bone calcium | about the same potency as the native hormone | about equivalent to 1,25(OH)2D3 | 10 nM | almost as potent as 1,25(OH)2D3 | – | –
2 | C=C1CC(=C)[C@H](O)C/C1=C/C=C1\CCC[C@]2(C)[C@@H]([C@H](C)CCCC(C)(C)O)CC[C@@H]12 [1D-QM, (20R)-25-hydroxy-2-methylene-vitamin D3] | 0.9 nM | about the same affinity | – | less potent than the native hormone | – | > 100 nM | almost as potent as 1,25(OH)2D3 | little or no mobilization of bone calcium | –
3 | C=C1/C(=C\C=C2/CCC[C@]3(C)[C@@H]([C@H](C)CCCC(C)(C)O)CC[C@@H]23)C[C@@H](O)C[C@@H]1O [1α,25-dihydroxyvitamin D3, reference compound] | – | – | significant increases in serum calcium | increased serum calcium levels | – | – | – | significant increases in serum calcium | 3 nM
